In patent US6469063B1, “Inhibition of inflammation via inhibition of COX-2 gene transcription” (City of Hope, priority 1999, dated 2002):
pIC50: −log10 of the molar value. Values joined by “and” are separate entries in the source; they are usually repeats but may differ in a detail not shown here. Identical values can stand only once. “Also recorded” adds a separate entry of the source.

Tests used:
COX-1 mRNA = experiment: Semi-quantitative RT-PCR of COX-1 gene expression in RIN m5F cells; type: cell-based, rat; conditions: same experiments as COX-2 mRNA
Experimental: (§1) RIN m5F cells were cultured to near confluence in RPMi-1640 medium (Life Technologies, Inc., Grand Island, N.Y.) plus 10% FCS plus 1% HEPES and penicillin/streptomycin. Prior to addition of IL-1β the cells were depleted in RPMI-1640 medium plus 0.2% BSA for 24 hours. The cells were gently washed in PBS and depletion medium was added back. At this time CDC (Biomol Research Lab, Inc., Plymouth Meeting, PA) (1-10 μM) was added in certain experiments 60 minutes prior to IL-1β addition. 12-HETE (1-100 nM) and 15-HETE (1-100 nM) (Biomol Research Lab, Inc., Plymouth Meeting, Pa.) were added to certain experiments in 0.1% ethanol. The cells were cultured for an additional 24 hours at which time medium was collected for PGE2 assay. For mRNA experiments, total RNA was extracted from RIN m5F cells 3 hours after the addition of IL-1 β, 12-HETE, or 15-HETE. 12HETE and 15-HETE were stored at −70 C. in the dark and added to cell culture dishes in the dark. Control experiments included the addition of 0.1% ethanol alone to RIN m5F cell cultures.
(§2) RIN m5F cells were cultured as set forth in Example 1, in the presence or absence of IL-1β (0.3 ng/ml), 12-S-HETE (1-100 nM), or 15-S-HETE (1-100 nM) for […]. Total RNA was extracted and semiquantitative RT-PCR was performed using COX-2 specific primers.
Total RNA was extracted from RIN m5F cells with RNA STAT-60 (Tel-Test, Inc., Friendswood, Tex.). RNA (1 μg) was diluted in 12.5 μl DEPC-H20 and reverse transcribed with the 1st-Strand™ cDNA Synthesis Kit (CLONTECH laboratories, Inc., Palo Alto, Calif.), using oligo dT primers, recombinant RNase inhibitor, and MMLV reverse transcriptase to generate template cDNA for PCR amplification. Each PCR reaction was done on RNA from one 100 mm culture dish for the stated experimental conditions. Twenty picomoles of each primer (shown below) was mixed with 1 unit of Taq gold polymerase (Perkin Elmer, Inc.) in 50 μl final volume. […]
PCR products were analyzed by electrophoresis with 1.8% agarose gel. […]

COX-2 mRNA = experiment: Semi-quantitative RT-PCR of COX-2 gene expression in RIN m5F cells; type: cell-based, rat; conditions: IL-1β 0.3 ng/ml, HETEs 1-100 nM
Experimental: as §1, §2
Total RNA was extracted from RIN m5F cells with RNA STAT-60 (Tel-Test, Inc., Friendswood, Tex.). RNA (1 μg) was diluted in 12.5 μl DEPC-H20 and reverse transcribed with the 1st-Strand™ cDNA Synthesis Kit (CLONTECH laboratories, Inc., Palo Alto, Calif.), using oligo dT primers, recombinant RNase inhibitor, and MMLV reverse transcriptase to generate template cDNA for PCR amplification. Each PCR reaction was done on RNA from one 100 mm culture dish for the stated experimental conditions. Twenty picomoles of each primer (shown below) was mixed with 1 unit of Taq gold polymerase (Perkin Elmer, Inc.) in 50 μl final volume. Samples were amplified with an initial 45 second denaturation step at 94° C. followed by 25 cycles of 45 seconds at 60° C., and 25 cycles of 2 minutes at 72° C.. The last cycle was extended for an additional 7 minutes at 72° C. PCR cycling was done with a Gene Amp PCR System 2400 (Perkin Elmer/Cetus Corp., Norwalk, Conn.). DNA primers were synthesized in the DNA/RNA Core Chemistry Laboratory at City of Hope National Medical Center. The sequences of the primers are shown below.
PCR products were analyzed by electrophoresis with 1.8% agarose gel. The DNA was transferred to nylon membranes and hybridized sequentially to ^32P-labeled probes for COX-1, COX-2, and GAPDH using a random Primed DNA labeling kit (Boehringer Mannheim). GAPDH was used as an internal control. Hybridization and autoradiography were performed according to previously published methods.

[1] = system: PGE2 production (COX-2 activity); experiment: PGE2 production in RIN m5F cells (RIA of conditioned medium); type: cell-based, rat; conditions: for PGE2 production in conditioned medium: 24 hours after addition of agent
Experimental: as §1
In addition, PGE2 production was measured under the same conditions, but over a 24 hour period. COX-2 activity was determined by measuring the accumulation of PGE2 in the conditioned media. Cells were cultured in 24 well plates for 24 hours and subject to the experimental conditions described above. PGE2 was measured in conditioned medium using a commercial RIA kit. Statistical analysis of PGE2 levels was performed using the Student's t-test with GraphPad Prism™ software (GraphPad Software, Inc, San Diego, Calif.).

COX-2 protein [2] = experiment: Western immunoblot of COX-2 protein expression in RIN m5F cells; type: cell-based, rat; conditions: 12-HETE 1-10 nM, 24 hours; for increase in COX-2 protein: IL-1β 0.3 ng/ml
Experimental: as §1
This Example investigates the mechanism(s) of this resistance. RIN m5F cells, cultured as set forth in Example 1, were stimulated with IL-1β and 12-HETE and total protein extracts were used for Western immunoblotting with an anti-COX-2 antibody.
The RIN m5F cells (−300 per blot) were lysed in a 1% Triton-0.1% SDS buffer in normal saline (pH 7.4) with 10 mM HEPES plus 1 mM EDTA and standard protease inhibitors. Cell lysates were centrifuged at 14,000×9 for 10 minutes and a modified BCA protein assay was performed. Protein aliquots (50 μg per sample) were treated with Laemmeli sample buffer and then heated to 100° C. for 5 minutes. Proteins were separated on 10% SDS-PAGE and transferred to polyvinylidene difluoride membranes (Immobilon-P) in 10 mM CAPS buffer, 10% methanol at pH 11. The immunoblots were blocked overnight in 5% nonfat dried milk in Tris buffer containing 0.1% Tween-20. […]

COX-2 gene transcription = conditions: higher concentrations; cited from earlier work
prostaglandin synthesis = conditions: 10-100 mg/kg; cited from earlier work
5-lipoxygenase = biological target: T1, 5-lipoxygenase (Homo sapiens, UniProt P09917); conditions: cited from earlier work
T1 sequence (P09917 1-674): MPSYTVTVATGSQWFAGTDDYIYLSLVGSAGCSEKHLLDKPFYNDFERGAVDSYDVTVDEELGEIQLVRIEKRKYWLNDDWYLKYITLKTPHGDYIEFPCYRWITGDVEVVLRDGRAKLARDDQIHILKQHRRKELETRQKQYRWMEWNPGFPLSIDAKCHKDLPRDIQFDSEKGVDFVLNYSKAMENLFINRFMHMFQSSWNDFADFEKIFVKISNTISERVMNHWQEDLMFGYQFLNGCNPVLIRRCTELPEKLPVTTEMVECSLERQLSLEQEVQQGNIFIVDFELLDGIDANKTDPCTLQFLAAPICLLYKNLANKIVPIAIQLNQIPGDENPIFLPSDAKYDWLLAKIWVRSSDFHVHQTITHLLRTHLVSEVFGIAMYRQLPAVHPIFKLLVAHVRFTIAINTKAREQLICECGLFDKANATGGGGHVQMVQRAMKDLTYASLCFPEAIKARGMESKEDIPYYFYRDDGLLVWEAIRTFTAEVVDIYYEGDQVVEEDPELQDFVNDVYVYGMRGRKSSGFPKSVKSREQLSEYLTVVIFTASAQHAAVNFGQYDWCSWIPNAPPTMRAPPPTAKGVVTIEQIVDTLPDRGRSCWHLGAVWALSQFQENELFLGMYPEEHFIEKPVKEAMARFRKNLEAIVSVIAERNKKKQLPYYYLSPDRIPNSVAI

COX-2 protein [3] = experiment: Western immunoblot of COX-2 protein in cultured intact porcine pancreatic islets; type: cell-based; conditions: 24 hours
Experimental: The RIN m5F cells (−300 per blot) were lysed in a 1% Triton-0.1% SDS buffer in normal saline (pH 7.4) with 10 mM HEPES plus 1 mM EDTA and standard protease inhibitors. Cell lysates were centrifuged at 14,000×9 for 10 minutes and a modified BCA protein assay was performed. Protein aliquots (50 μg per sample) were treated with Laemmeli sample buffer and then heated to 100° C. for 5 minutes. Proteins were separated on 10% SDS-PAGE and transferred to polyvinylidene difluoride membranes (Immobilon-P) in 10 mM CAPS buffer, 10% methanol at pH 11. The immunoblots were blocked overnight in 5% nonfat dried milk in Tris buffer containing 0.1% Tween-20. The blots were incubated for 2 hours at room temperature with anti COX-2 antibodies (Cayman Chemical Co., Ann Arbor, Mich.) diluted 1:2000 in the same Tris buffer without nonfat dried milk. The blots were washed and then incubated with horseradish peroxidase conjugated secondary antibodies at 1:2000 dilution. The protein bands were visualized with enhanced chemiluminescence reagents using X-AR film.
Next, Western immunoblots were performed on protein extracts from porcine islets treated in a similar fashion with IL-1β and lysed as set forth about for RIN m5F cells. Because of the concern that 12-HETE would not permeate the islet mass, the 12-LO inhibitor CDC (1 μM) was used instead with or without the addition of IL-1β, in order to determine the role of the 12-LO pathway on COX-2 protein expression.

12-lipoxygenase = conditions: cited from earlier work
15-lipoxygenase = conditions: cited from earlier work
HIT cells = HIT cells treated with IL-1β for 24 hours; cited from earlier work
[4] = system: leukocyte influx and prostaglandin synthesis; conditions: oral, 3 mg/kg, over a 24 hour period; cited from earlier work
PGE2 production = PGE2 production in islets from C57BL/6 and 12-LO knockout mice; type: cell-based, mouse; conditions: for PGE2 generated by IL-1β stimulated islets: 24 hours
Experimental: Generation of 12-LO knockout has been previously described. All animal studies were performed in accordance with guidelines set forth by the Research Animal Care Committee of City of Hope National Medical Center. Islet isolation and culturing techniques have been detailed previously. Briefly, mouse pancreas was removed, minced, and poured into a siliconized 25 ml Ehrlenmeyer flask with Type Xl collagenase solution (Sigma Chemical Co, St. Louis, Mo.). The pancreatic digest was incubated in a shaker-type water bath at 37 C. for 6-10 minutes. The digest was centrifuged, poured into a black back petri dish, and islets were picked by hand under a microscope. The islets were aliquoted into sterile 6-well plates (Sarstedt, Newton, N.C.) and cultured in RPMI 1640 medium containing 11 mM glucose and supplemented with 10% FCS and 1% HEPES. Typically, we isolate −75-100 islets per mouse. For PGE2 experiments, 100 islets per well in 300 μl RPMI medium were cultured overnight prior to additions. The following morning the medium was changed to RPMI 1640 medium plus 0.2% BSA and the islets were allowed to equilibrate for one hour. Then, IL-1β (R & D Systems, Minneapolis, Minn.) was added to the appropriate experiments. All islet experiments were run in triplicate and repeated three times for reproducibility.
Isolated islets (100 per experiment) were brought to culture and incubated overnight as described. After approximately 18 hours IL-1β was added to the medium and the islets were incubated for an additional 24 hours. PGE2 production was measured as set forth in Example 3.

CCCCC/C=C\C[C@@H](O)/C=C/C=C\C/C=C\CCCC(=O)O [12-HETE, 12-hydroxyeicosatetraenoic acid, reference compound]
COX-1 mRNA expression / gene transcription (COX-1 mRNA): No appreciable difference; also recorded: neither IL-1β,nor 12-HETE stimulated | increase in COX-2 mRNA expression (COX-2 mRNA): 3 fold | increase in PGE2 relative to 15-HETE ([1]; 24 hours): 10 fold | PGE2 production in conditioned medium [1]: ~1250 pg/mL | COX-2 protein stimulation compared to IL-1β (0.3 ng/ml) (COX-2 protein [2]): equipotent | increase in COX-2 protein (COX-2 protein [2]): 3 fold

CCCCC[C@H](O)/C=C/C=C\C/C=C\C/C=C\CCCC(=O)O [15-HETE, 15-hydroxyeicosatetraenoic acid, reference compound]
increase in COX-2 mRNA expression (COX-2 mRNA): 1.5 fold | PGE2 production in conditioned medium [1]: ~125 pg/mL

O=C(/C=C/c1ccc(O)c(O)c1)OCCc1ccccc1 [CAPE, caffeic acid phenethyl ester]
concentration inhibiting COX-2 gene transcription (COX-2 gene transcription): 35 to 70 µM | prostaglandin synthesis in rat carrageenan air pouch (prostaglandin synthesis): inhibited prostaglandin synthesis in a dose-dependent fashion

N#CC(=Cc1ccc(O)c(O)c1)C(=O)OCC=Cc1ccccc1 [CDC, cinnamamyl-3,4-dihydroxy-α-cyanocinnamate]
pIC50 (5-lipoxygenase): 5.48 | effect on IL-1β stimulated increase in COX-2 protein (COX-2 protein [3]; CDC 1 μM plus IL-1β): completely inhibited; also recorded: completely eliminated this response | effect on basal COX-2 protein levels (COX-2 protein [3]; CDC alone): did not appreciably affect | pIC50 (12-lipoxygenase): 7.20 | inhibition of IL-1β induced PGE2 production ([1]; CDC 1 μM (1-10 μM)): completely inhibited; also recorded: statistically significant decrease; also recorded: statistically significant inhibition; also recorded: dose-dependent | IL-1β induced PGE2 production in presence of CDC ([1]; CDC 1 μM added 60 minutes before IL-1β, 24 hours): 169+5 pg/ml | pIC50 (15-lipoxygenase): 5.72

CS(=O)(=O)Nc1ccc([N+](=O)[O-])cc1OC1CCCCC1 [NS-398]
glucose-stimulated insulin secretion (HIT cells): partially restored

CS(=O)(=O)Nc1ccc(Oc2ccc(F)cc2)s1 [RWJ63556]
inhibition of leukocyte influx [4]: significant sustained inhibition | inhibition of prostaglandin synthesis [4]: significant sustained inhibition

interleukin-1β [IL-1β]
COX-1 mRNA expression / gene transcription (COX-1 mRNA): neither IL-1β,nor 12-HETE stimulated | COX-1 mRNA expression / gene transcription (COX-1 mRNA; listed as IL-1 β): No appreciable difference | PGE2 production upon stimulation with IL-1β (words) (PGE2 production; 12-LO knockout mouse islets): fail to stimulate prostaglandin E2 production | PGE2 generated by IL-1β stimulated islets (PGE2 production; 12-LO knockout mouse islets): 78+15 pg/ml | PGE2 production upon stimulation with IL-1β (words) (PGE2 production; 12-LO knockout mouse islets, listed as IL-1 β): no appreciable PGE2 production | increase in PGE2 production with IL-1β stimulation (PGE2 production; C57BL/6 mouse islets): 8 fold and 7 fold | PGE2 generated by IL-1β stimulated islets (PGE2 production; C57BL/6 mouse islets): 5405+1012 pg/ml | increase in COX-2 mRNA expression (COX-2 mRNA): 2 fold | increase in COX-2 mRNA expression (COX-2 mRNA; listed as IL-1 β): 2 fold and 1.5 fold | increase in COX-2 protein (COX-2 protein [3]; IL-1β 0.3 ng/ml): 3 fold | PGE2 production in conditioned medium [1]: ~500 pg/ml and 388+27 pg/ml | increase in COX-2 protein (COX-2 protein [2]): 2.5 fold
